Among the data in patent US20130259830A1, “CRTH2 MODULATORS” (Ironwood Pharmaceuticals, Inc., priority 2010, published 2013) are IC50 values, retold here.

SMILES strings stand for the structures.

Assay [1] concerns the target T1, CRTH2 (Homo sapiens, UniProt Q9Y5Y4).
T1 construct: endogenous in cells; host or cells: eosinophils in human whole blood
T1 sequence (Q9Y5Y4 1-395): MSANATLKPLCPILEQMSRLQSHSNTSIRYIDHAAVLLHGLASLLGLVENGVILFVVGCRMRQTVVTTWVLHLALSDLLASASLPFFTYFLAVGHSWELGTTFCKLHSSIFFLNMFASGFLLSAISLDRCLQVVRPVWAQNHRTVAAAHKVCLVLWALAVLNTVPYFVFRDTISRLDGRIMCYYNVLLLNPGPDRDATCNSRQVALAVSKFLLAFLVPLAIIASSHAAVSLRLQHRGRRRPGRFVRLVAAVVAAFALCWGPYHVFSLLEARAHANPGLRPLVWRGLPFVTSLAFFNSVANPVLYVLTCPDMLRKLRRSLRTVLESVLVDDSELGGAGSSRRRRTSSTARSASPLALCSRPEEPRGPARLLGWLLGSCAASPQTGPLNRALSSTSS
The assay is described as follows: DPBS CD11b antagonist assay (CD11b expression in eosinophils challenged with 15R-Methyl-PGD2). The class given is cell-based. The following applies: polymorphonuclear cells in PBS with CaCl2/MgCl2; agonist 15R-Methyl-PGD2 10 nM; eosinophils gated by flow cytometry. How it is done: DPBS CD111b Antagonist Assay.
The potential CRTH2 antagonist, activity of certain compounds was tested using a CD11b expression assay using essentially the method described by Monneret et al. (J Pharmacol Exp Ther 304:349-55, 2003). Briefly, polymorphonuclear cells (0.5 ml; 10^6/ml cells) in PBS containing 0.9 mM CaCl2 and 0.5 mM MgCl2) were preincubated with various concentrations of test compounds at room temperature for 10 minutes before they were challenged with the agonist 15R-Methyl-PGD2 (10 nM). The incubations were terminated by the addition of ice-cold FACSFlow (BD Biosciences; Cat#342003) and centrifugation (400 g for 5 minutes at 4° C.). The cells were then incubated for 30 minutes at 4° C. with a mixture of PE-labeled mouse anti-human VLA-4 (5 μl; BD Biosciences) and FITC-labeled mouse anti-human CD11b (10 μl; Beckman Coulter). The cells were then incubated with Optilyse C (0.25 ml; Beckman Coulter) for 15 minutes, centrifuged, and then fixed in PBS (0.4 ml; calcium and magnesium free) containing 1% formaldehyde. The distribution of fluorescence intensities among 60,000 cells was measured by flow cytometry. Eosinophils were gated out on the basis of their granularity (high side scatter) and labeling with VLA-4 (PE fluorescence). CD11b was then measured in the eosinophil region on the basis of fluorescence due to FITC. All data were corrected for the value obtained for the corresponding isotope control antibody.

Assay [2] deals with T1, CRTH2. The assay is described as follows: Human whole blood CD11b antagonist assay (CD11b expression in eosinophils challenged with 15-R-methyl-PGD2). The class given is cell-based. Particulars: 37° C. 10 minutes preincubation, agonist 15R-Methyl-PGD2 10 nM, eosinophils gated by flow cytometry. As for the experimental part:
Human Whole Blood […] Antagonist Assay (Modified from Nicholson, et al. Pulmonary Pharmacology and Therapeutics: 20 (2007); 52-59).
The potential CRTH2 antagonist activity of certain compounds was tested in human whole blood using an assay that tests the ability of the compounds to block the CD11b expression in eosinophils by 15-R-methyl-PGD2. A CRTH2 antagonist should block CD11b expression by subsequently added 15-Methyl-PGD2. Human whole blood (200 μL) was incubated at 37° C. for 10 minutes in the presence of various concentrations of test compounds before being challenged with the agonist 1-5R-Methyl-PGD2 (10 nM). Reactions were terminated by the addition of ice-cold PBS+0.5% BSA+2 mM EDTA (1 mL) and centrifugation (300×g for 5 minutes at 4° C.) Cells were then incubated at 4° C. for 10 min in the presence of human IgG. Cells were then incubated for 30-45 min with a mixture of PE-Cy5-labeled mouse anti-human CD16 (10 ul; BD Biosciences) and FITC-labeled mouse anti-human CD11b (10 μL; Beckman Coulter.) After rinsing (1 mL ice-cold PBS+0.5% BSA+2 mM EDTA), red blood cells were lysed by the addition of 1 mL ice-cold H2O to the cell pellet for 30 sec-1 min immediately followed by the addition of 3.5% NaCl (300 μL.) Cells were then rinsed (2×−1 ml ice cold PBS+0.5% BSA+2m MEDTA) and fixed in PBS containing 1% formaldehyde. The distribution of fluorescence intensities was measured by flow cytometry. Eosinophils were gated out on the basis of their granularity (high side scatter) and absence of CD-16. CD11b was then measured on this eosinophil population on the basis of fluorescence due to FITC.

Regarding `CCOC(=O)Cn1c(C)c(Cc2cccnc2S(=O)(=O)c2ccc(Cl)cc2)c2c1CC(C)(C)CC2=O` [Compound I-14, Ethyl 2-(3-((2-(4-chlorophenylsulfonyl)pyridin-3-yl)methyl)-2,6,6-trimethyl-4-oxo-4,5,6,7-tetrahydro-1H-indol-1-yl)acetate], the IC50 was in the range of 100 to 500 nM in assay [1] and 500 to 3000 nM in assay [2].
In the case of `Cc1c(Cc2cccnc2S(C)(=O)=O)c2c(n1CC(=O)O)CC(C)(C)CC2=O` [Compound I-32, 2-(2,6,6-Trimethyl-3-((2-(methylsulfonyl)pyridin-3-yl)methyl)-4-oxo-4,5,6,7-tetrahydro-1H-indol-1-yl)acetic acid], the IC50 in assay [1] and in assay [2] was 500 to 3000 nM each time.
`Cc1c(Cc2ccccc2NS(=O)(=O)N2CCCC2)c2c(n1CC(=O)O)CC(C)(C)CC2=O` [Compound I-40, 2-(2,6,6-Trimethyl-4-oxo-3-(2-(pyrrolidine-1-sulfonamido)benzyl)-4,5,6,7-tetrahydro-1H-indol-1-yl)acetic acid]: the results for the IC50 in assay [1] and in assay [2] were 1 to 5 nM and 100 to 500 nM, respectively.
On to `CCOC(=O)Cn1c(C)c(Cc2cccnc2S(=O)(=O)c2cccc(OC)c2)c2c1CC(C)(C)CC2=O` [Compound I-11, Ethyl 2-(3-((2-(3-methoxyphenylsulfonyl)pyridin-3-yl)methyl)-2,6,6-trimethyl-4-oxo-4,5,6,7-tetrahydro-1H-indol-1-yl)acetate], for which the IC50 in assay [1] was 100 to 500 nM; in assay [2], 500 to 3000 nM.
In the same order, the values of `Cc1c(Cc2ccc(S(=O)(=O)c3ccccc3)s2)c2c(n1CC(=O)O)CC(C)(C)CC2=O` [Compound I-26, 2-(2,6,6-Trimethyl-4-oxo-3-((5-(phenylsulfonyl)thiophen-2-yl)methyl)-4,5,6,7-tetrahydro-1H-indol-1-yl)acetic acid] are 100 to 500 nM and more than 3000 nM.
As for `CCOC(=O)Cn1c(C)c(Cc2cccnc2S(=O)(=O)c2ccc(OC)cc2)c2c1CC(C)(C)CC2=O` [Compound I-6, ethyl 2-(3-((2-(4-methoxyphenylsulfonyl)pyridin-3-yl)methyl)-2,6,6-trimethyl-4-oxo-4,5,6,7-tetrahydro-1H-indol-1-yl)acetate], the IC50 in assay [1] was 5 to 20 nM; in assay [2], 500 to 3000 nM.
In the case of `Cc1c(Cc2ccccc2NS(=O)(=O)N2CCOCC2)c2c(n1CC(=O)O)CC(C)(C)CC2=O` [Compound I-49], the IC50 in assay [1] is 1 to 5 nM; in assay [2] it was 20 to 100 nM.
For the compound `Cc1c(Cc2ccccc2N(C)S(=O)(=O)c2ccccc2)c2c(n1CC(=O)O)CC(C)(C)CC2=O` [Compound I-35, 2-(2,6,6-Trimethyl-3-(2-(N-methylphenylsulfonamido)benzyl)-4-oxo-4,5,6,7-tetrahydro-1H-indol-1-yl)acetic acid], the IC50 in assay [1] was in the range of 1 to 5 nM; in assay [2], 20 to 100 nM.
For `Cc1c(Cc2cc(OCC(F)(F)F)ccc2NS(=O)(=O)c2ccccc2)c2c(n1CC(=O)O)CC(C)(C)CC2=O` [Compound I-36, 2-(2,6,6-Trimethyl-4-oxo-3-(2-(phenylsulfonamido)-5-(2,2,2-trifluoroethoxy)benzyl)-4,5,6,7-tetrahydro-1H-indol-1-yl)acetic acid], in that order: 1 to 5 nM and 20 to 100 nM.
For `Cc1ccc(S(=O)(=O)c2ncccc2Cc2c3c(n(CC(=O)O)c2C)CC(C)(C)CC3=O)cc1` [Compound I-20, 2-(2,6,6-Trimethyl-4-oxo-3-((2-tosylpyridin-3-yl)methyl)-4,5,6,7-tetrahydro-1H-indol-1-yl)acetic acid], in that order: less than 1 nM and 5 to 20 nM.
Consider `Cc1c(Cc2ccccc2S(=O)(=O)N2CCCC2)c2c(n1CC(=O)O)CC(C)(C)C/C2=N\OC(C)(C)C` [Compound I-30, (E)-2-(4-(tert-Butoxyimino)-2,6,6-trimethyl-3-(2-(pyrrolidin-1-ylsulfonyl)benzyl)-4,5,6,7-tetrahydro-1H-indol-1-yl)acetic acid], for which the IC50 in assay [1] lay within 1 to 5 nM; in assay [2], 100 to 500 nM.
Regarding `Cc1ccc(S(=O)(=O)N(C)c2cccc(Cc3c4c(n(CC(=O)O)c3C)CC(C)(C)CC4=O)c2)cc1` [Compound I-45, 2-(3-(3-(N,4-Dimethylphenylsulfonamido)benzyl)-2,6,6-trimethyl-4-oxo-4,5,6,7-tetrahydro-1H-indol-1-yl)acetic acid], the IC50 was 100 to 500 nM in assay [1] and more than 3000 nM in assay [2].
With `Cc1c(Cc2ccccc2NS(=O)(=O)c2ccc(F)cc2F)c2c(n1CC(=O)O)CC(C)(C)CC2=O` [Compound I-22, 2-(3-(2-(2,4-Difluorophenylsulfonamido)benzyl)-2,6,6-trimethyl-4-oxo-4,5,6,7-tetrahydro-1H-indol-1-yl)acetic acid], the results for the IC50 in assay [1] and in assay [2] were less than 1 nM and 20 to 100 nM, respectively.
Take `CCOC(=O)Cn1c(C)c(Cc2cccnc2S(=O)(=O)c2ccccc2)c2c1CC(C)(C)CC2=O` [Compound I-9, ethyl 2-(2,6,6-trimethyl-4-oxo-3-((2-(phenylsulfonyl)pyridin-3-yl)methyl)-4,5,6,7-tetrahydro-1H-indol-1-yl)acetate]: the IC50 in assay [1] was 100 to 500 nM; in assay [2], 500 to 3000 nM.
As for `COc1cccc(S(=O)(=O)c2ncccc2Cc2c3c(n(CC(=O)O)c2C)CC(C)(C)CC3=O)c1` [Compound I-13, 2-(3-((2-(3-Methoxyphenylsulfonyl)pyridin-3-yl)methyl)-2,6,6-trimethyl-4-oxo-4,5,6,7-tetrahydro-1H-indol-1-yl)acetic acid], the IC50 in assay [1] fell in the range of 1 to 5 nM; in assay [2], 20 to 100 nM.
With `Cc1c(Cc2cccnc2S(=O)(=O)c2ccc(F)cc2F)c2c(n1CC(=O)O)CC(C)(C)CC2=O` [Compound I-19, 2-(3-((2-(2,4-Difluorophenylsulfonyl)pyridin-3-yl)methyl)-2,6,6-trimethyl-4-oxo-4,5,6,7-tetrahydro-1H-indol-1-yl)acetic acid], the values for the IC50 in assay [1] and in assay [2] were 1 to 5 nM and 20 to 100 nM, respectively.
In the same order, the values of `Cc1c(Cc2ccccc2N(C)S(=O)(=O)N2CCCC2)c2c(n1CC(=O)O)CC(C)(C)CC2=O` [Compound I-43, 2-(2,6,6-Trimethyl-3-(2-(N-methylpyrrolidine-1-sulfonamido)benzyl)-4-oxo-4,5,6,7-tetrahydro-1H-indol-1-yl)acetic acid] are 5 to 20 nM and 20 to 100 nM.
For `Cc1c(Cc2cccnc2S(=O)(=O)c2ccc(C(F)(F)F)cc2)c2c(n1CC(=O)O)CC(C)(C)CC2=O` [Compound I-12, 2-(2,6,6-Trimethyl-4-oxo-3-((2-(4-(trifluoromethyl)phenylsulfonyl)pyridin-3-yl)methyl)-4,5,6,7-tetrahydro-1H-indol-1-yl)acetic acid], in that order: 100 to 500 nM and 500 to 3000 nM.
